What all share (test): Thymol modulation of GABA concentration-response curves, two electrode voltage clamp in Xenopus oocytes
What all share (type): cell-based

Assay [1] addresses T1, N-7′H mutant Drosophila RDL receptor (Drosophila melanogaster, UniProt P25123, N292H).
T1 construct: expressed in transfected cells; host or cells: Xenopus laevis oocytes injected with cRNA
T1 sequence (P25123 45-606 N292H): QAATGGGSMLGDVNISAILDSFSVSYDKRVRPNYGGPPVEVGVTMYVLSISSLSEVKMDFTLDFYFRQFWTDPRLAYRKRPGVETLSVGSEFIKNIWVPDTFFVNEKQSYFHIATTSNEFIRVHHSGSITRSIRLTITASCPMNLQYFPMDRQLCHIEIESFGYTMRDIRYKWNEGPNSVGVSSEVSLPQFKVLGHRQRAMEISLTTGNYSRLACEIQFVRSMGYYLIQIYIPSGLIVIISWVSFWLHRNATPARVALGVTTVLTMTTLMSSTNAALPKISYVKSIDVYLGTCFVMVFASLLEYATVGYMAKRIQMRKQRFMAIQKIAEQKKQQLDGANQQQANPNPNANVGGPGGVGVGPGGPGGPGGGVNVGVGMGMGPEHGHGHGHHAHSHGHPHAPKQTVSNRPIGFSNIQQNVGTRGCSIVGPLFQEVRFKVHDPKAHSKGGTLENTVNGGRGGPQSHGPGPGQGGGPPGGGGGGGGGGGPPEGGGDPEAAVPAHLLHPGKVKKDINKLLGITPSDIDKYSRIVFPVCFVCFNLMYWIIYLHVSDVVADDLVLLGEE
Conditions: N-7′H RDL. How it is done: (§1) X. laevis oocyte-positive females were purchased from NASCO (Fort Atkinson, Wisconsin, USA) and maintained according to standard methods. Harvested stage V-VI Xenopus oocytes were washed in four changes of ND96 (96 mM NaCl, 2 mM KCl, 1 mM MgCl2, 1 mM CaCl2, 5 mM HEPES, pH 7.5), de-folliculated in 1.5 mg ml^−1 collagenase Type 1A for approximately 2 h, washed again in four changes of ND96 and stored in ND96 containing 2.5 mM sodium pyruvate, 0.7 mM theophylline and […].
(§2) Site directed mutagenesis was performed with the QuikChange mutagenesis kit (Agilent, La Jolla, CA). cRNA was transcribed in vitro from linearised pGEMHE cDNA template using the mMessage mMachine T7 Transcription kit (Ambion, Austin, Texas, USA). Stage V and VI oocytes were injected with 5 ng cRNA, incubated at 18 °C, and currents recorded 18–24 h post-injection.
(§3) Currents were recorded at 5 kHz and filtered at a frequency of 1 kHz. Micro-electrodes were fabricated from borosilicate glass (GC120TF-10, Harvard Apparatus, Edenbridge, Kent, UK) using a one stage horizontal pull (P-87, Sutter Instrument Company, California, USA) and filled with 3 M KCl. […] Oocytes were perfused with ND96 at a constant rate of 12 ml min^−1. Drug application was via a simple gravity fed system calibrated to run at the same rate.
(§4) Analysis and curve fitting was performed using Prism v5 (GraphPad Software, San Diego, California, USA). Concentration-response data for each oocyte was normalised to the maximum current for that oocyte. The mean and S.E.M. for a series of oocytes were fitted to the four parameter logistic equation in Prism.

In assay [2] the target is T2, wild type Drosophila RDL receptor (Drosophila melanogaster, UniProt P25123).
T2 construct: expressed in transfected cells; host or cells: Xenopus laevis oocytes injected with cRNA
T2 sequence (P25123 45-606): T1 sequence (P25123 45-606 N292H) with H248N
Conditions: WT RDL. The procedure: as §1, §2, §3, §4

Assay [3] addresses T3, A21′Q mutant Drosophila RDL receptor (Drosophila melanogaster, UniProt P25123, A320Q).
T3 construct: expressed in transfected cells; host or cells: Xenopus laevis oocytes injected with cRNA
T3 sequence (P25123 45-606 A320Q): T1 sequence (P25123 45-606 N292H) with H248N, A276Q
How it is done: as §1, §2, §3, §4

[4] abbreviates: GABA EC50 control vs +100 μM thymol.
Setting [5] is: GABA concentration-response in presence of 100 μM thymol.

Substitutions are numbered along the chain they refer to.

Take `Cc1ccc(C(C)C)c(O)c1` [Thymol, thymol]: the “Effect of thymol on GABA-induced responses” value in assay [1] (100 μM thymol, 1 μM GABA) was “enhance”; in assay [2] (100 μM thymol, 1 μM GABA), “enhance”; in assay [3] (100 μM thymol, 1 μM GABA) it was “enhance”. Further, the “Fold change in EC50” value in assay [1] (setting [4]) was 2.7; in assay [2] (setting [4]) it was 4.8; in assay [3] (setting [4]) it was 3.6. Also, the “% Imax” value in assay [1] (setting [5]) turned out to be 82 ± 4%; in assay [2] (setting [5]), 94 ± 3%; in assay [3] (setting [5]), 89 ± 4%.

For the origin of these results see paper PMC4261083, “An atypical residue in the pore of Varroa destructor GABA-activated RDL receptors affects picrotoxin block and thymol modulation” (Insect Biochemistry and Molecular Biology, 2014).
